From patent publication US20250270227A1, “CAMPTOTHECIN DERIVATIVE, AND PHARMACEUTICAL COMPOSITION AND USE THEREOF” (SIMCERE ZAIMING PHARMACEUTICAL CO., LTD., priority 2021, published 2025)

Legend:
[1] = tested on: Human colorectal cancer cell line HCT116; assay: Test 1 of anti-proliferative activity against tumor cells (Cell-Titer Glo); assay type: cell-based; conditions: Homo sapiens, HCT-116, 72 h, read-out: HCT116 Anti-proliferative activity IC50 (nM), HCT116 cells, cultured 3 days with compound, Cell-Titer Glo
Experimental: (§1) Cell culture: HCT116 cells and SKBR3 cells were cultured in McCoy's 5a medium containing 10% fetal bovine serum+1% penicillin-streptomycin at 37° C. and 5% CO2, and OVCAR3 cells were cultured in 1640 medium containing 20% fetal bovine serum+2 μg/mL bovine insulin+1% penicillin-streptomycin at 37° C. and 5% CO2. Cells in logarithmic growth phase were suitable for the experiment.
(§2) Detection of cell proliferation activity: The inhibitory activity of the compounds on the proliferation of the three cell lines HCT116, SKBR3 and OVCAR3 was detected using Cell-Titer Glo reagent. HCT116 cells (1500 cells per well), SKBR3 cells (3000 cells per well) and OVCAR3 cells (5000 cells per well) were seeded in 96-well plates and cultured at 37° C. and 5% CO2 for 24 h. The solution of the compound to be tested (the compound was dissolved in DMSO with the concentration of the compound being 1 mM, then the compound was diluted to 3 μM with DMSO, with 3-fold dilution and a total of 9 concentrations, and 10 μL of the prepared compound solution was transferred to a 96-well plate with the final concentration of 0-300 nM) was added. The cells were placed at 37° C. and 5% CO2 for further culture. HCT116 cells were cultured for 3 days, and SKBR3 cells and OVCAR3 cells were cultured for 5 days. The cell viability was detected by adding Cell-Titer Glo reagent.
(§3) Additionally, a negative control group and a positive control group were provided as Bottom and Top, respectively. In the negative control group, the cells were not added, only the same volume of medium was added, and other operations were consistent with those in the experimental group; in the positive control group, the test compound was not added, only the same volume of DMSO was added, and other operations were consistent with those in the experimental group.
(§4) Data analysis: The % compound inhibition was calculated, and fitting was performed to obtain IC50 of the compound.
(§5) % Compound inhibition=1−100%*(Signal−Bottom)/(Top−Bottom).
(§6) Signal represents the signal value of the experimental group, Bottom represents the average signal value of the negative control group, and Top represents the average signal value of the positive control group.

[2] = tested on: human breast cancer cell line SKBR3; assay: as above; assay type: cell-based; conditions: Homo sapiens, SK-BR-3, 120 h, read-out: SKBR3 Anti-proliferative activity IC50 (nM), SKBR3 cells, cultured 5 days with compound, Cell-Titer Glo
Experimental: as §1, §2, §3, §4, §5, §6

CC[C@@]1(O)C(=O)OCc2c1cc1n(c2=O)Cc2c-1nc1cc3c(cc1c2CNC(=O)CO)OCCO3 [Compound 1, (S)-N-((8-ethyl-8-hydroxy-9,12-dioxo-2,3,8,9,12,14-hexahydro-11H-[1,4]dioxino[2,3-g]pyrano[3′,4′:6,7]indolizino[1,2-b]quinolin-15-yl)methyl)-2-hydroxyacetamide]
IC50 [1]: 36.8 nM | IC50 [2]: 8.5 nM

CC[C@@]1(O)C(=O)OCc2c1cc1n(c2=O)Cc2c-1nc1cc(F)c(Cl)cc1c2CN [Compound 2, (S)-11-(aminomethyl)-9-chloro-4-ethyl-8-fluoro-4-hydroxy-1,12-dihydro-14H-pyrano[3′,4′:6,7]indolizino[1,2-b]quinoline-3,14(4H)-dione]
IC50 [1]: 3.6 nM | IC50 [2]: 2.5 nM

CC[C@@]1(O)C(=O)OCc2c1cc1n(c2=O)Cc2c-1nc1cc(F)c(Cl)cc1c2CNC(=O)CO [Compound 3, (S)-N-((9-chloro-4-ethyl-8-fluoro-4-hydroxy-3,14-dioxo-3,4,12, 14-tetrahydro-1H-pyrano[3′,4′:6,7]indolizino[1,2-b]quinolin-11-yl)methyl)-2-hydroxyacetamid]
IC50 [1]: 18.2 nM | IC50 [2]: 3.6 nM

CC[C@@]1(O)C(=O)OCc2c1cc1n(c2=O)Cc2c-1nc1cc(F)c(Br)cc1c2CN [Compound 4, (S)-11-(aminomethyl)-9-bromo-4-ethyl-8-fluoro-4-hydroxy-1,12-dihydro-14H-pyrano[3′,4′:6,7]indolizino[1,2-b]quinoline-3,14(4H)-dione]
IC50 [1]: 3.6 nM | IC50 [2]: 2.7 nM

CC[C@@]1(O)C(=O)OCc2c1cc1n(c2=O)Cc2c-1nc1cc(F)c(Br)cc1c2CNC(=O)CO [Compound 5, (S)-N-((9-bromo-4-ethyl-8-fluoro-4-hydroxy-3,14-dioxo-3,4, 12,14-tetrahydro-1H-pyrano[3′,4′:6,7]indolizino[1,2-b]quinolin-11-yl)methyl)-2-hydroxyacetamide]
IC50 [1]: 16.9 nM | IC50 [2]: 3.3 nM

CC[C@@]1(O)C(=O)OCc2c1cc1n(c2=O)Cc2c-1nc1ccc3c(c1c2CNC(=O)CO)CCC3 [Compound 7, (S)-N-((8-ethyl-8-hydroxy-9,12-dioxo-2,3,8,9,12,14-hexahydro-1H,11H-cyclopentadieno[f]pyrano[3′,4′:6,7]indolizino[1,2-b]quinolin-15-yl)methyl)-2-hydroxyacetamide]
IC50 [1]: 22.8 nM

CC[C@@]1(O)C(=O)OCc2c1cc1n(c2=O)Cc2cc3c(CNC(=O)CO)c(O)ccc3nc2-1 [Compound 8, (S)-N-((4-ethyl-4,9-dihydroxy-3,14-dioxo-3,4,12,14-tetrahydro-1H-pyrano[3′,4′:6,7]indolizino[1,2-b]quinolin-10-yl)methyl)-2-hydroxyacetamide]
IC50 [1]: 289 nM | IC50 [2]: 55.1 nM

CC[C@@]1(O)C(=O)OCc2c1cc1n(c2=O)Cc2c-1nc1cc(F)c(C)cc1c2CNC(=O)C1(O)CC1 [Compound 9, (S)-N-((4-ethyl-8-fluoro-4-hydroxy-9-methyl-3,14-dioxo-3,4,12, 14-tetrahydro-1H-pyrano[3′,4′:6,7]indolizino[1,2-b]quinolin-11-yl)methyl)-1-hydroxycyclopropane-1-carboxamide]
IC50 [1]: 4.6 nM | IC50 [2]: 2.1 nM

CC[C@@]1(O)C(=O)OCc2c1cc1n(c2=O)Cc2c-1nc1cc(Cl)c(C)cc1c2CNC(=O)C1(O)CC1 [Compound 10, (S)-N-((8-chloro-4-ethyl-4-hydroxy-9-methyl-3,14-dioxo-3,4, 12,14-tetrahydro-1H-pyrano[3′,4′:6,7]indolizino[1,2-b]quinolin-11-yl)methyl)-1-hydroxycyclopropan-1-carboxamide]
IC50 [1]: 5.6 nM | IC50 [2]: 2.3 nM

CC[C@@]1(O)C(=O)OCc2c1cc1n(c2=O)Cc2c-1nc1cc(Cl)c(C)cc1c2CNC(=O)C(O)C1CC1 (stereo partly drawn) [Compound 11, N-(((S)-8-chloro-4-ethyl-4-hydroxy-9-methyl-3,14-dioxo-3,4, 12,14-tetrahydro-1H-pyrano[3′,4′:6,7]indolizino[1,2-b]quinolin-11-yl)methyl)-2-cyclopropyl-2-hydroxyacetamide]
IC50 [1]: 10.4 nM | IC50 [2]: 3.2 nM

CC[C@@]1(O)C(=O)OCc2c1cc1n(c2=O)Cc2c-1nc1cc(F)c(Cl)c(F)c1c2CN [Compound 12, (S)-11-(aminomethyl)-9-chloro-4-ethyl-8,10-difluoro-4-hydroxy-1,12-dihydro-14H-pyrano[3′,4′:6,7]indolizino[1,2-b]quinoline-3,14(4H)-dione]
IC50 [1]: 13.7 nM | IC50 [2]: 4.8 nM

CC[C@@]1(O)C(=O)OCc2c1cc1n(c2=O)Cc2c-1nc1cnc(Br)cc1c2CNC(=O)CO [Compound 15, (S)-N-((9-bromo-4-ethyl-4-hydroxy-3,14-dioxo-3,4,12,14-tetrahydro-1H-pyrano[3′,4′:6,7]indolizino[1,2-b][1,7]naphthyridin-11-yl)methyl)-2-hydroxyacetamide]
IC50 [1]: 81.3 nM

CC[C@@]1(O)C(=O)OCc2c1cc1n(c2=O)Cc2c-1nc1cc(F)c(Cl)c(F)c1c2CNC(=O)C1(O)CC1 [Compound 16, (S)-N-((9-chloro-4-ethyl-8,10-difluoro-4-hydroxy-3,14-dioxo-3,4,12,14-tetrahydro-1H-pyrano[3′,4′:6,7]indolizino[1,2-b]quinolin-11-yl)methyl)-1-hydroxycyclopropane-1-carboxamide]
IC50 [1]: 3 nM | IC50 [2]: 2.3 nM

CC[C@@]1(O)C(=O)OCc2c1cc1n(c2=O)Cc2c-1nc1cc(Cl)c(C)cc1c2CNC(=O)C(C)(C)O [Compound 17, (S)-N-((8-chloro-4-ethyl-4-hydroxy-9-methyl-3,14-dioxo-3,4, 12,14-tetrahydro-1H-pyrano[3′,4′:6,7]indolizino[1,2-b]quinolin-11-yl)methyl)-2-hydroxy-2-methylpropanamide]
IC50 [1]: 6 nM | IC50 [2]: 2.7 nM

CC[C@@]1(O)C(=O)OCc2c1cc1n(c2=O)Cc2c-1nc1cc(Cl)c(C)cc1c2CNC(=O)C(O)C(C)C (stereo partly drawn) [Compound 18, N-(((S)-8-chloro-4-ethyl-4-hydroxy-9-methyl-3,14-dioxo-3,4, 12,14-tetrahydro-1H-pyrano[3′,4′:6,7]indolizino[1,2-b]quinolin-11-yl)methyl)-2-hydroxy-3-methylbutanamide]
IC50 [1]: 10.5 nM | IC50 [2]: 5.1 nM

CC[C@@]1(O)C(=O)OCc2c1cc1n(c2=O)Cc2c-1nc1cc(Cl)c3occc3c1c2CNC(=O)CO [Compound 27, (S)-N-((4-chloro-8-ethyl-8-hydroxy-9,12-dioxo-8,9,12,14-tetrahydro-11H-furo[3,2-f]pyrano[3′,4′:6,7]indolizino[1,2-b]quinolin-15-yl)methyl)-2-hydroxyacetamide]
IC50 [1]: 24.3 nM

CC[C@@]1(O)C(=O)OCc2c1cc1n(c2=O)Cc2c-1nc1cc(Cl)c3occc3c1c2CNC(=O)C(O)C1CC1 (stereo partly drawn) [Compound 28, N-(((S)-4-chloro-8-ethyl-8-hydroxy-9,12-dioxo-8,9,12,14-tetrahydro-11H-furo[3,2-f]pyrano[3′,4′:6,7]indolizino[1,2-b]quinolin-15-yl)methyl)-2-cyclopropyl-2-hydroxyacetamide]
IC50 [1]: 8.8 nM

CC[C@@]1(O)C(=O)OCc2c1cc1n(c2=O)Cc2c-1nc1cc3c(c([N+](=O)[O-])c1c2CNC(=O)C(O)C1CC1)OCO3 (stereo partly drawn) [Compound 29, 2-cyclopropyl-N-(((S)-7-ethyl-7-hydroxy-15-nitro-8,11-dioxo-7,8,11,13-tetrahydro-10H-[1,3]dioxolo[4,5-g]pyrano[3′,4′:6,7]indolizino[1,2-b]quinolin-14-yl)methyl)-2-hydroxyacetamide]
IC50 [1]: 55.1 nM
